This is an account of results in patent publication US20250134938A1 (priority 2023, published 2025).

The MIC is the smallest concentration in the dilution series that meets the test's criterion for growth inhibition. The term inhibition denotes the share of the control response that was lost under treatment.

The subject of one series is L. lactis CAB701 strain. Briefly: Antibiotic resistance by E-test (MIC). The series is classed as cell-based, Lactococcus lactis subsp. lactis. The protocol:
The value at the end of the strip pointed by the inhibitory ring was determined as the minimum inhibitory concentration (MIC).

Series [1] addresses T1, porcine pancreatic lipase type II (Sus scrofa, UniProt P00591).
T1 construct: purchased Sigma
T1 sequence (P00591 1-450): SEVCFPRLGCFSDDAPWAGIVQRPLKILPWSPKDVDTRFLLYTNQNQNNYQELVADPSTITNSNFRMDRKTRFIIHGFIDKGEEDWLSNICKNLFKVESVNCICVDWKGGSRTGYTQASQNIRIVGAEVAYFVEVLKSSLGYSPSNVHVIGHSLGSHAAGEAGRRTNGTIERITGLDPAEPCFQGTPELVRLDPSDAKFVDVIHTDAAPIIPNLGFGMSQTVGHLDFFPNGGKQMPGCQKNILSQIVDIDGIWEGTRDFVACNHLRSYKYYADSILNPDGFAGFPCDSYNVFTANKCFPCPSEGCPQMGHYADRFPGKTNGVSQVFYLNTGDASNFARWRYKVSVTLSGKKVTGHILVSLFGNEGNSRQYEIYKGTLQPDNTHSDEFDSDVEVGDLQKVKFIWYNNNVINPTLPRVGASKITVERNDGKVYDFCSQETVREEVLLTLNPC
Briefly: Inhibition of pancreatic lipase. The series is classed as biochemical. The following applies: 1000 μg/mL; read-out: Pancreatic lipase inhibition rate (%). The protocol:
50 mg of porcine pancreatic lipase type II (Sigma) was suspended in 10 mL of 10 mM Tris-HCl buffer adjusted to pH 8.0, vortexed for 15 minutes, and centrifuged at 4000 rpm for 10 minutes at 18° C. The supernatant was used as an enzyme solution. As a substrate, p-nitrophenyl butyrate (Sigma-Aldrich (Schnelldorf, Germany)) dissolved in acetonitrile to 10 mM was used. […] Tertiary distilled water was used as a negative control group. […] After adding 10 μL of a substrate solution, followed by reaction for 5 minutes at 37° C., absorbance was measured using a microplate reader at 405 nm, which is the maximum absorbance of p-nitrophenol. Pancreatic lipase inhibition rate (%)=[(negative control absorbance-sample absorbance)/negative control absorbance]×100

[2] abbreviates: Lactococcus lactis, CAB701STRAIN, E-test, MRS agar, 37° C., 72 hours, read-out: MIC.

In brackets after ≈: the same amount, converted by molar mass. Where two headings read alike, the source gives them in different places.

Take `CC1(C)S[C@@H]2[C@H](NC(=O)[C@H](N)c3ccccc3)C(=O)N2[C@H]1C(=O)O` [Ampicillin]: the Evaluation result with L. lactis CAB701 strain is recorded as “Allowed”. The MIC in the series on L. lactis CAB701 strain (setting [2]) is 0.094 µg/mL (≈ 0.269 µM).

For `O=C(N[C@H](CO)[C@H](O)c1ccc([N+](=O)[O-])cc1)C(Cl)Cl` [Chloramphenicol], in the series on L. lactis CAB701 strain, the Evaluation entry was “Allowed”. Moreover, the MIC in the series on L. lactis CAB701 strain (setting [2]) is 1.5 µg/mL (≈ 4.64 µM).

`CCC[C@@H]1C[C@@H](C(=O)N[C@@H]([C@H]2O[C@H](SC)[C@H](O)[C@@H](O)[C@H]2O)[C@H](C)Cl)N(C)C1` [Clindamycin]: the Evaluation result with L. lactis CAB701 strain is reported as “Allowed”. Moreover, the minimum inhibitory concentration (MIC) in the series on L. lactis CAB701 strain (setting [2]) came out at 0.25 µg/mL (≈ 0.588 µM).

As for `CC[C@H]1OC(=O)[C@H](C)[C@@H](O[C@H]2C[C@@](C)(OC)[C@@H](O)[C@H](C)O2)[C@H](C)[C@@H](O[C@@H]2O[C@H](C)C[C@H](N(C)C)[C@H]2O)[C@](C)(O)C[C@@H](C)C(=O)[C@H](C)[C@@H](O)[C@]1(C)O` [Erythromycin], the Evaluation entry in the series on L. lactis CAB701 strain was “Allowed”.

For `NC[C@H]1O[C@H](O[C@H]2[C@H](O)[C@@H](O[C@H]3O[C@H](CO)[C@@H](O)[C@H](N)[C@H]3O)[C@H](N)C[C@@H]2N)[C@H](O)[C@@H](O)[C@@H]1O` [Kanamycin], the Evaluation entry in the series on L. lactis CAB701 strain is recorded as “Allowed”. In addition, the MIC with L. lactis CAB701 strain (setting [2]) is 8 µg/mL (≈ 16.5 µM).

Turning to `[H]/N=C(/N)N[C@H]1[C@H](O)[C@@H](O)[C@H](O[C@@H]2O[C@@H](C)[C@](O)(C=O)[C@H]2O[C@@H]2O[C@@H](CO)[C@H](O)[C@@H](O)[C@@H]2NC)[C@@H](N/C(N)=N\[H])[C@@H]1O` [Streptomycin], the Evaluation entry in the series on L. lactis CAB701 strain is recorded as “Allowed”. For the same molecule, the minimum inhibitory concentration (MIC) in the series with L. lactis CAB701 strain (setting [2]) came to 16 µg/mL (≈ 27.5 µM).

Turning to `CN(C)[C@@H]1C(O)=C(C(N)=O)C(=O)[C@@]2(O)C(O)=C3C(=O)c4c(O)cccc4[C@@](C)(O)[C@H]3C[C@@H]12` [Tetracycline], the MIC in the series with L. lactis CAB701 strain (setting [2]) amounted to 0.094 µg/mL (≈ 0.212 µM). Further, the Evaluation entry in the series on L. lactis CAB701 strain (MIC against EFSA cut-off value) is reported as “Allowed”.

Consider `CN[C@H](CC(C)C)C(=O)N[C@H]1C(=O)N[C@@H](CC(N)=O)C(=O)N[C@H]2C(=O)N[C@H]3C(=O)N[C@H](C(=O)N[C@H](C(=O)O)c4cc(O)cc(O)c4-c4cc3ccc4O)[C@H](O)c3ccc(c(Cl)c3)Oc3cc2cc(c3O[C@@H]2O[C@H](CO)[C@@H](O)[C@H](O)[C@H]2O[C@H]2C[C@](C)(N)[C@H](O)[C@H](C)O2)Oc2ccc(cc2Cl)[C@H]1O` [Vancomycin], for which the MIC against L. lactis CAB701 strain (Lactococcus lactis, CAB701STRAIN, 72 h) stood at 0.38 µg/mL (≈ 0.262 µM). The Evaluation entry with L. lactis CAB701 strain (MIC against EFSA cut-off value) was “Allowed”.

For the molecule `CCCCCCCCCCC[C@@H](C[C@@H]1OC(=O)[C@H]1CCCCCC)OC(=O)[C@H](CC(C)C)NC=O` [orlistat], in series [1], the inhibition at 1000 µg/mL (stock) is 28.6 ± 6.2%.

Gentamicin showed a minimum inhibitory concentration (MIC) with L. lactis CAB701 strain (E-test) of 3 µg/mL. Besides, the minimum inhibitory concentration (MIC) against L. lactis CAB701 strain (E-test, MRS agar, 37° C., 72 hours) turned out to be 3 µg/mL. The Evaluation result in the series with L. lactis CAB701 strain (MIC against EFSA cut-off value) is on record as “Allowed”.
